Measured values taken from publication PMC7355972, “Flavonoids in Decorticated Sorghum Grains Exert Antioxidant, Antidiabetic and Antiobesity Activities” (Molecules, 2020).

Key:
[1] = system: advanced glycation end-products (AGEs) formation; test: Inhibition of protein glycation (BSA/D-glucose, fluorescent AGEs); conditions: BSA + D-glucose, 37 °C for a week
Procedure: The procedure by Sekhon-Loodu and Rupasinghe was adapted with slight modification. Bovine serum albumin (BSA), D-glucose and aminoguanidine were dissolved in 0.2 M phosphate buffer saline (pH 7.4) containing sodium azide (0.02% w/v). Equal volumes containing BSA (5.0 mg/mL) and D-glucose (36 mg/mL) and the negative control or the test samples or aminoguanidine at different concentrations (0.01, 0.02, 0.04, 0.05, 0.1, 0.2, 0.5 and 1.0 mg/mL) were added to reach a final volume of 1.0 mL. Aminoguanidine, a known AGE formation inhibitor, was used as the positive control. The mixtures in Eppendorf tubes were incubated in triplicate at 37 °C for a week. Fluorescent AGEs were measured using a microplate reader at 340 nm excitation and 420 nm emission wavelengths. Experiments were conducted in triplicates. The percentage of the AGE inhibition was calculated as shown below:(3) Inhibition (%)=[1−(Fluorescent of the test/Fluorescent of control)]×100
The results were expressed in terms of IC50 representing the concentration of test extracts required to cause the inhibition of AGE formation by 50%.

[2] = DPPH radical scavenging activity; conditions: soluble (70% ethanol) extracts; 30 min, 517 nm
Procedure: The method previously described by Ofosu et al. was used to measure DPPH radical scavenging by ethanol extracts using a 24-well microplate reader. Briefly, 200 μL sample extracts of various concentrations were added to 2 mL freshly made DPPH radical solution (100 μM). After 30 min incubation at room temperature, absorbance was read at 517 nm.

[3] = ABTS radical scavenging activity; conditions: soluble (70% ethanol) extracts; 734 nm
Procedure: The ABTS radical scavenging assay described by Ofosu et al. was used. ABTS^+ stock solution was prepared by reacting equal volumes of 7 mM ABTS solution with 2.45 mM potassium persulfate solution in the dark at room temperature for 16 h. Using ethanol, the ABTS+ stock solution was diluted to obtain an absorbance of approximately 0.70 at 734 nm. Appropriately, 80 μL sample extracts of various concentrations were added to 1 mL freshly prepared ABTS+ radical solution, and the absorbance was read at 734 nm.

Structure (SMILES) | AGEs formation inhibitory activity IC50 [1] | DPPH radical scavenging activity IC50 [2] | ABTS radical scavenging activity IC50 [3]
N=C(N)NN [aminoguanidine] | 52.30 µg/mL | – | –
Cc1c(C)c2c(c(C)c1O)CCC(C)(C(=O)O)O2 (stereo not drawn) [Trolox, 6-hydroxy-2,5,7,8-tetramethylchromane-2-carboxylic acid] | – | 48.7 ± 2.19 µg/mL | 74.60 ± 1.45 µg/mL
